In patent US8486945B2, “Heterocyclic inhibitors of an Hh-signal cascade, medicinal compositions based thereon and methods for treating diseases caused by the aberrant activity of an Hh-signal system” (priority 2007, dated 2013) one finds IC50 data, which are given here for 31 compounds.

The test system of this experiment is Hh-signalling cascade. Put plainly: Inhibition of SHh-induced alkaline phosphatase in C3H10T1/2 cells (Hh-signalling cascade inhibition). It is filed as cell-based. To be noted: Mus musculus, C3H 10T1/2, half maximal inhibition of SHh (0.3 μg/ml) stimulation of cell alkaline phosphatase. The text has this: C3H10T1/2 Cells were used for identification of inhibitors of SHh-protein signaling cascade. SHh-protein activates C3H10T1/2 cells, that leads to their osteogenic differentiation [1) Kinto N., Iwamoto M., Enomoto-Iwamoto M., Noji S., Ohuchi H., Yoshioka H., Kataoka H., Wada Y., Yuhao G., Takahashi H. E., Yoshiki S., Yamaguchi A. Fibroblasts expressing Sonic hedgehog induce osteoblast differentiation and ectopic bone formation. FEBS Lett. 1997; 404(2-3): 319-23. 2) Spinella-Jaegle S., Rawadi G., Kawai S., Gallea S., Faucheu C., Mollat P., Courtois B., Bergaud B., Ramez V., Blanchet A. M., Adelmant G., Baron R., Roman-Roman S. Sonic hedgehog increases the commitment of pluripotent mesenchymal cells into the osteoblastic lineage and abolishes adipocytic differentiation. J. Cell Sci. 2001; 114(Pt 11): 2085-94] and, in particular, to expression enhancement of alkaline phosphatase enzyme.
The cells were cultivated in DMEM medium with 10% embryonal calfish serum in incubator at 37° C., 100% humidity and 5% CO2 content. The cells were placed in 384-well plates and left for night. On the next day the tested compounds in concentration of 10 μM were added to the cells, incubated for 30 min, then recombinant (R & D Systems, USA) SHh protein in concentration of 0.3 μg/ml was added and incubation was continued for 3 days. Cells with DMSO instead of a test compound and cells without SHh protein were used as test control. For determination of the cell alkaline phosphatase activity the cells were lysed in the buffer containing 0.2% Triton-X100, lisates were incubated together with proluminescent substrate CSPD (Applied Biosystems, USA) and the resultant luminescence was measured using reader VICTOR^2V (PerkinElmer, USA).
The ability of the compounds to inhibit Hh-signalling cascade was determined using C3H10T1/2 cells in 384-well plates as described in example 1. The compounds were added in triplicates in various concentrations, prepared by multiple dilution of starting solutions (concentration dependences of cell alkaline phosphatase inhibition induced by the addition of tested compounds are shown in FIG. 1). Activity of the compounds was characterized by their concentrations produced half maximal inhibition of stimulation of cell alkaline phosphatase SHh (IC50).

Each structure is given as a SMILES string.

Turning to `Cc1ccc(CNC(=O)C2CCN(C(=O)c3cc4sccc4n3Cc3ccc(F)cc3)CC2)cc1` [V-1033, 1-[4-(4-Fluorobenzyl)-4H-thieno[3,2-b]pyrrole-5-carbonyl]piperidine-4-carboxylic acid [(4-methylphenyl)methyl]amide], the IC50 (in general, the concentration needed to halve the response being measured) is less than 0.5 µM. With `CN1CCN(C(=O)C2CCN(C(=O)c3cc4sccc4n3Cc3cccc(Cl)c3)CC2)CC1` [V-1049, [4-(3-Chlorobenzyl)-4H-thieno[3,2-b]pyrrol-5-yl]-[4-(4-methylpiperazine-1-carbonyl)piperidin-1-yl]methanone] the figure was less than 0.5 µM; with `O=C(Nc1ccc(-c2cn3cccnc3n2)cc1)C1CCCC1` [IV-1002, Cyclopentanecarboxylic acid (4-imidazo[1,2-a]pyrimidin-2-ylphenyl)amide], less than 50 µM; with `CCn1c(C(=O)N2CCC(C(=O)N3CCN(c4ccccc4)CC3)CC2)cc2sccc21` [V-1008, (4-Ethyl-4H-thieno[3,2-b]pyrrol-5-yl)[4-(4-phenyl-piperazine-1-carbonyl)piperidine-1-yl]methanone], less than 50 µM. `Cc1nn(-c2ccccc2)c2c1N(CCCC(=O)N1CCN(c3ccccn3)CC1)C(=O)CS2` [II-1025, 3-Methyl-4-[4-oxo-4-((4-pyridin-2-yl)piperazin-1-yl)butyl]-1-phenyl-1,4-dihydropyrazolo[3,4-b][1,4]thiazin-5-one] came in with an IC50 of less than 0.5 µM. Regarding `CC(=O)Nc1ccc(-c2cn3ccccc3n2)cc1` [III-1007, N-(4-(Imidazo[1,2-a]pyridin-2-yl)phenyl)acetamide], the IC50 is more than 50 µM. For `O=C(NCCN1CCOCC1)C1CCN(C(=O)c2cc3sccc3n2Cc2ccc(F)cc2F)CC1` [V-1041, 1-[4-(2,4-Difluorobenzyl)-4H-thieno[3,2-b]pyrrole-5-carbonyl]piperidine-4-carboxylic acid (2-N-morpholinoethyl)amide] the value was less than 0.5 µM; for `Cc1nn(-c2ccccc2)c2c1N(CC(=O)NC(C)C)C(=O)CS2` [II-1008, N-Isopropyl-2-(3-methyl-5-oxo-1-phenyl-5,6-dihydro-1H-pyrazolo[3,4-b][1,4]thiazin-4-yl)acetamide], more than 50 µM. Consider `Cc1cccn2cc(-c3ccc(NC(=O)Cc4ccccc4)cc3)nc12` [III-1013, N-[4-(8-Methylimidazo[1,2-a]pyridin-2-yl)phenyl]-2-phenylacetamide], for which the IC50 was less than 5 µM. With `O=C(Nc1ccc(F)cc1)c1ccc2c(c1)CCCN2S(=O)(=O)c1ccccc1` [VII-1012, 1-Phenylsulfonyl-1,2,3,4-tetrahydroquinoline-6-carboxylic acid (4-fluorophenyl)amide] the figure was less than 5 µM; with `COc1ccc(Cn2c(C(=O)N3CCC(C(=O)N4CCN(C)CC4)CC3)cc3sccc32)cc1` [V-1053, [4-(4-Methoxybenzyl)-4H-thieno[3,2-b]pyrrol-5-yl]-[4-(4-methylpiperazine-1-carbonyl)piperidin-1-yl]methanone], less than 0.5 µM; with `CCN(CC)CCCNC(=O)C1CCN(C(=O)c2cc3sccc3n2Cc2ccc(F)cc2)CC1` [V-1032, 1-[4-(4-Fluorobenzyl)-4H-thieno[3,2-b]pyrrole-5-carbonyl]piperidine-4-carboxylic acid 3-(diethylamino)propylamide], less than 0.5 µM. In the case of `Cc1nn(-c2ccccc2)c2c1N(CC(=O)N1CCN(c3ccc(Cl)cc3)CC1)C(=O)CS2` [II-1012, 4-{2-[4-(4-Chlorophenyl)piperazin-1-yl]-2-oxoethyl}-3-methyl-1-phenyl-1,4-dihydropyrazolo[3,4-b][1,4]thiazin-5-one], the IC50 is less than 0.5 µM. With `COc1ccc(NC(=O)c2ccc3c(c2)CCCN3S(=O)(=O)c2ccc(C)cc2)cc1` [VII-1014, 1-Tosyl-1,2,3,4-tetrahydroquinoline-6-carboxylic acid (4-methoxyphenyl)amide] the figure was less than 5 µM. For `CN1CCc2c(sc(NC(=O)c3cccc(C(F)(F)F)c3)c2-c2nc3ccccc3s2)C1` [VIII-1026, N-(3-(Benzo[d]thiazol-2-yl)-6-methyl-4,5,6,7-tetrahydrothieno[2,3-c]pyridin-2-yl)-3-trifluoromethylbenzamide] the value was less than 50 µM. With `CCOc1ccc(NC(=O)c2ccnc(N3CCC(C(=O)Nc4ccc(F)cc4)CC3)c2)cc1` [VI-1007, 3,4,5,6-Tetrahydro-2H-[1,2′]bipyridinyl-4,4′-carboxylic acid 4′-[(4-ethoxyphenyl)amide] 4-[(4-fluorophenyl)amide]] the figure was less than 5 µM; with `O=C(NCC1CCCO1)C1CCN(C(=O)c2cc3sccc3n2Cc2ccc(Cl)cc2)CC1` (stereo not shown) [V-1046, 1-[4-(4-Chlorobenzyl)-4H-thieno[3,2-b]pyrrole-5-carbonyl]piperidine-4-carboxylic acid [(tetrahydrofuran-2-yl)methyl]amide], less than 5 µM. The compound `CCN1CCN(C(=O)CCCn2nc(C)c3c(C)n(-c4ccc(C)cc4)nc3c2=O)CC1` [I-1024, 2-(4-Methylphenyl)-3,4-dimethyl-6-[4-(4-ethylpiperazin-1-yl)-4-oxobutyl]-2,6-dihydro-7H-pyrazolo[3,4-c]pyridazin-7-one] yielded an IC50 of less than 50 µM. `COc1ccc(C(=O)Nc2ccc(-c3cn4ccccc4n3)cc2)cc1` [III-1006, N-(4-(Imidazo[1,2-a]pyridin-2-yl)phenyl)-4-methoxybenzamide]: the IC50 was less than 5 µM.

As to `Cc1ccc(NC(=O)c2ccc3c(c2)CCCN3S(=O)(=O)c2ccc(Br)cc2)cc1` [VII-1020, 1-(4-Bromophenylsulfonyl)-1,2,3,4-tetrahydroquinoline-6-carboxylic acid p-tolylamide], the IC50 was less than 5 µM. Regarding `CN1CCN(C(=O)C2CCN(C(=O)c3cc4sccc4n3Cc3ccccc3Cl)CC2)CC1` [V-1052, [4-(2-Chlorobenzyl)-4H-thieno[3,2-b]pyrrol-5-yl]-[4-(4-methylpiperazine-1-carbonyl)piperidin-1-yl]methanone], the IC50 is less than 0.5 µM. With `COc1ccc(C(=O)Nc2cccc(-c3cn4ccccc4n3)c2)cc1` [III-1018, N-(3-(Imidazo[1,2-a]pyridin-2-yl)phenyl)-4-methoxybenzamide] the figure was less than 0.5 µM; with `CC(=O)N1CCc2c(sc(NC(=O)C3CCCCC3)c2-c2nc3ccccc3s2)C1` [VIII-1016, Cyclohexanecarboxylic acid (6-acetyl-3-benzo[d]thiazol-2-yl-4,5,6,7-tetrahydrothieno[2,3-c]pyridin-2-yl)amide], less than 5 µM.

`COc1ccc(NC(=O)CCCN2C(=O)CSc3c2c(C)nn3-c2ccccc2)cc1` [II-1026, N-(4-Methoxyphenyl)-4-(3-methyl-5-oxo-1-phenyl-5,6-dihydro-1H-pyrazolo[3,4-b][1,4]thiazin-4-yl)butyramide]: the IC50 was less than 50 µM. For `COCCCNC(=O)C1CCN(C(=O)c2cc3sccc3n2Cc2ccc(F)cc2)CC1` [V-1040, 1-[4-(4-Fluorobenzyl)-4H-thieno[3,2-b]pyrrole-5-carbonyl]piperidine-4-carboxylic acid (3-methoxypropyl)amide] the value was less than 0.5 µM; for `COCCCNC(=O)C1CCN(C(=O)c2cc3sccc3n2Cc2ccc(Cl)cc2)CC1` [V-1047, 1-[4-(4-Chlorobenzyl)-4H-thieno[3,2-b]pyrrole-5-carbonyl]piperidine-4-carboxylic acid (3-methoxypropyl)amide], less than 0.5 µM. With `COc1ccccc1C(=O)Nc1ccc(-c2cn3cccnc3n2)cc1` [IV-1004, N-(4-(Imidazo[1,2-a]pyrimidin-2-yl)phenyl)-2-methoxybenzamide] the figure was less than 0.5 µM. The compound `COc1cccc(C(=O)Nc2ccc(-c3cn4ccccc4n3)cc2)c1` [III-1001, N-(4-(Imidazo[1,2-a]pyridin-2-yl)phenyl)-3-methoxybenzamide] registered a half-inhibitory concentration (IC50) of less than 0.5 µM. In turn, `CN1CCc2c(sc(NC(=O)C3CC3)c2-c2nc3ccccc3s2)C1` [VIII-1003, Cyclopropanecarboxylic acid (3-benzo[d]thiazol-2-yl-6-methyl-4,5,6,7-tetrahydrothieno[2,3-c]pyridin-2-yl)amide] had a 50% inhibitory concentration (IC50) of less than 5 µM. `Cc1ccc(NC(=O)c2ccc3c(c2)CCCN3S(=O)(=O)c2ccc(Cl)cc2)cc1C` [VII-1017, 1-(4-Chlorophenylsulfonyl)-1,2,3,4-tetrahydroquinoline-6-carboxylic acid (3,4-dimethylphenyl)amide] had an IC50 of less than 0.5 µM. With `Cc1nn(-c2ccccc2)c2c1N(CC(=O)NCCN1CCOCC1)C(=O)CS2` [II-1010, 2-(3-Methyl-5-oxo-1-phenyl-5,6-dihydro-1H-pyrazolo[3,4-b][1,4]thiazin-4-yl)-N-(2-morpholin-4-yl)ethylacetamide] the figure was more than 50 µM.
